Test results as given in PubChem BioAssay (NCI).
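Following 48 hours of exposure in 96-well plates, responses at five concentrations were used to interpolate endpoints linearly. At the GI50, growth is halved. The concentration for full growth arrest is given as TGI.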

Tests used:
Test in all cases: inhibition of tumour cell growth, NCI panel, 48 h
[1] = system: A549 NSCLC
[2] = system: MALME-3M melanoma
[3] = system: NCI-H23 lung
[4] = system: SF-268 CNS
[5] = system: SF-295 CNS
[6] = system: SK-MEL-2 melanoma
[7] = system: UACC-257 melanoma
[8] = system: UACC-62 melanoma
[9] = system: KM12 colon
[10] = system: NCI-H522 lung

| SMILES | TGI [1] [µM] | TGI [2] [µM] | TGI [3] [µM] | TGI [4] [µM] | TGI [5] [µM] | TGI [6] [µM] | TGI [7] [µM] | TGI [8] [µM] | TGI [9] [µM] | TGI [10] [µM] | GI50 [4] [µM] | GI50 [5] [µM] | GI50 [1] [µM] | GI50 [9] [µM] | GI50 [2] [µM] | GI50 [3] [µM] | GI50 [10] [µM] | GI50 [7] [µM] | GI50 [8] [µM] |
| --- | --- | --- | --- | --- | --- | --- | --- | --- | --- | --- | --- | --- | --- | --- | --- | --- | --- | --- | --- |
| Cc1cc2c(CC(=O)O)[nH]nc2c(C(=O)O)c1C | > 100 | > 100 | > 100 | > 100 | > 100 | > 100 | > 100 | > 100 | – | – | – | – | – | – | – | – | – | – | – |
| Nc1nc(-c2cccc([N+](=O)[O-])c2)c(Br)c(=O)[nH]1 | > 71.4 | – | > 100 | > 100 | > 66.6 | > 100 | > 71.4 | > 69.7 | > 100 | > 100 | – | – | – | – | – | – | – | – | – |
| CCCCCCNC(=O)C1=C(C)NC(C)=C(C(=O)NCCCCCC)C1 | > 100 | – | > 100 | > 100 | > 100 | > 100 | > 100 | > 100 | > 100 | > 100 | – | – | – | – | – | – | – | – | – |
| CCCC(=O)c1c(NOC2OC(COC(C)=O)C(OC(C)=O)C(OC(C)=O)C2OC(C)=O)nc(OC)n(C)c1=O (configuration not stated) | > 100 | – | > 100 | > 100 | > 100 | > 100 | – | > 100 | > 100 | > 100 | – | – | – | – | – | – | – | – | – |
| N#CC(C#N)=C(N)/C(C#N)=C\c1ccnc2ccccc12 | > 100 | 87 | 40.5 | 66.3 | 80.4 | – | 58.6 | 38.9 | > 100 | 89.1 | – | – | – | – | – | – | – | – | – |
| Cc1c(CCCl)c(=O)n2c([nH]c3ccccc32)c1C#N | 3.53 | 2.02 | 3.49 | 4.41 | 3.48 | 4.46 | 8.04 | 2.75 | 3.14 | – | – | – | – | – | – | – | – | – | – |
| CN1CC(c2ccccc2)N(CCCCN2CC(c3ccccc3)N(C)CC2c2ccccc2)CC1c1ccccc1 (configuration not stated) | > 100 | 81.8 | – | > 100 | > 100 | 81.2 | 42.6 | > 100 | > 100 | – | – | – | – | – | – | – | – | – | – |
| COC1=CC23C=CC1[C@@H](c1ccccc1)C2=C(C)C(=O)N3C(=O)NC1CCCCC1 (some centres not stated) | 79.8 | – | 57.5 | 33.6 | 53.7 | 39.5 | 77.4 | 47.6 | > 100 | 41.3 | – | – | – | – | – | – | – | – | – |
| COc1cc(-c2cc(=O)c3cc4c(cc3[nH]2)OCO4)cc(OC)c1OC | > 100 | > 100 | > 100 | > 100 | 97.9 | > 100 | – | > 100 | > 100 | > 100 | 32.7 | 32 | – | – | – | – | – | – | – |
| C=CCNC(=S)N1CC(C)C(=O)Nc2ccccc21 (configuration not stated) | > 100 | > 100 | > 100 | > 100 | > 100 | > 100 | – | > 100 | > 100 | > 100 | – | – | – | – | – | – | – | – | – |
| O=c1cc(-c2ccccc2)[nH]c2cccc(S)c12 | > 100 | > 100 | > 100 | > 100 | 0.389 | – | > 100 | > 100 | > 100 | – | – | – | – | – | – | – | – | – | – |
| CC(=O)N/C(=C\c1ccc(/C=C(\NC(C)=O)c2nc3ccc(Cl)cc3[nH]2)cc1)c1nc2ccccc2[nH]1 | > 100 | > 100 | > 100 | > 100 | – | > 100 | – | > 100 | > 100 | > 100 | – | – | – | – | – | – | – | – | – |
| CC(=O)NC1=N/C(=C/c2cc([N+](=O)[O-])ccc2O)CN1C | > 100 | – | > 100 | – | > 100 | > 100 | > 100 | > 100 | > 100 | – | – | – | – | – | – | – | – | – | – |
| CCOC(=O)CCC(=O)C1c2cccc(O)c2C(=O)c2c(O)cccc21 | 2.18 | 3.42 | 3.09 | – | 1.95 | – | 3.3 | 1.42 | 2.2 | 1.46 | – | – | – | – | – | – | – | – | – |
| Oc1ccc(N=Nc2ccc(Cl)cc2)cc1 | 31.3 | – | 32.3 | 34.5 | 34.6 | 28.4 | 31.5 | 36.4 | 28.2 | 25 | – | – | – | – | – | – | – | – | – |
| COc1cc2c(cc1OCc1ccccc1)N=C[C@@H]1C/C(=C/C(=O)NCCCN3C(=O)c4cccc5cccc(c45)C3=O)CN1C2=O | > 100 | 1.06 | 1.89 | 5.01 | 9.49 | – | – | 2.55 | 6.59 | – | 0.314 | 0.63 | 3.05 | 1.09 | 0.272 | 0.352 | 0.228 | 2.26 | 0.599 |
| COP1(=O)CC2C(Cl)(Cl)C2(C)C1 (configuration not stated) | > 100 | – | > 100 | > 100 | > 100 | – | – | > 100 | > 100 | > 100 | – | – | – | – | – | – | – | – | – |
